Legend:
Venturis inaequalis = test: In vivo fungicidal activity, Apple Scab (AS); details: Table VIa; host plants sprayed; solution of 400 ppm and dilutions
Plasmopara viticola [1] = test: In vivo fungicidal activity, Grape Downy Mildew (GDM); details: Table VIa; host plants sprayed; solution of 400 ppm and dilutions; further: ranges in brackets are in %
Botrytis cinerea [2] = test: In vivo fungicidal activity, Pepper Botrytis (PB); details: Table VIa; host plants sprayed; solution of 400 ppm and dilutions; further: ranges in brackets are in %
Pyricularia oryzae [3] = format: in vivo; details: Table VIa; host plants sprayed; solution of 400 ppm and dilutions
Cercospora beticola = test: In vivo fungicidal activity, Sugar Beet Cercospora (SBC); details: Table VIa; host plants sprayed; solution of 400 ppm and dilutions; further: ranges in brackets are in %
Alternaria solani [4] = test: In vivo fungicidal activity, Tomato Early Blight (TEB); details: Table VIa; host plants sprayed; solution of 400 ppm and dilutions; further: ranges in brackets are in %
[5] = test system: Erysiphe graminis f. sp. tritici; test: In vivo fungicidal activity, Wheat Powdery Mildew (WPM); details: Table VIa; host plants sprayed; solution of 400 ppm and dilutions
Septoria nodorum = test: In vivo fungicidal activity, Wheat Blotch (WSN); details: Table VIa; host plants sprayed; solution of 400 ppm and dilutions
Procedure: Test compounds are dissolved in acetone and diluted with deionized water containing about 0.05% TWEEN 20®, a polyoxyethylene sorbitan monolaurate surfactant manufactured by Atlas Chemical Industries, to give a concentration of 400 ppm. Subsequent dilutions are made with an 0.05% aqueous solution of TWEEN 20®.
Host plants are sprayed with test solution, dried and inoculated with fungi. When disease symptom development is optimal, the plants are rated for disease control according to the rating scale shown below. Each test contains inoculated treated plants, inoculated untreated plants and a reference standard. When more than one test is run, the data are averaged.

Plasmopara viticola [6] = test: Antisporulant activity against vine downy mildew (PVA); format: in vivo; details: vine leaves, antisporulant foliar spray, 600 ppm, 750 l/ha
In short: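 Cabernet Sauvignon vines (~8 cm) inoculated on lower leaf surfaces with 5×10^4 zoosporangia/ml, held 24 h at 21° C high humidity then 24 h glasshouse. Infected leaves sprayed underside with 600 ppm compound in 1:1 water/acetone, 0.04% Tween 20, 750 l/ha; 96 h glasshouse, 24 h humidity. Sporulating leaf area rated versus control.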

Alternaria solani [7] = test: Activity against tomato early blight (AS); format: in vivo; details: Table VI; tomato seedlings, contact prophylactic foliar spray, 4 days
In short: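 Foliar contact prophylactic spray on tomato seedlings (cv Outdoor Girl, second true leaf expanded) in acetone/water 50:50 with 0.04% Tween 20; 24 h at 20° C, 40% R.H., then inoculation with 10^4 spores/ml A. solani conidia. Kept moist at 21° C; lesion cover rated 4 days post-inoculation against untreated or diluent-sprayed controls.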

Botrytis cinerea [8] = test: Direct protectant activity against broad bean grey mould (BCB); format: in vivo; details: direct protectant foliar spray, 600 ppm, 4 days
In short: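 Broad bean plants (cv The Sutton, two leaf pairs) sprayed on upper leaf surfaces at 600 ppm, then inoculated 24 h later with 10^6 conidia/ml. Kept 4 days at 22 °C, high humidity; disease control rated from % leaf area with lesions against untreated or diluent controls.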

Leptosphaeria nodorum = test: Activity against wheat leafspot (LN); format: in vivo; details: direct therapeutic foliar spray, 600 ppm, 6-8 days
In short: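 Wheat cv Norman at single-leaf stage spray-inoculated with 1.5×10^6 conidia/ml, held 24 h at high humidity, then sprayed therapeutically with test compound at 600 ppm. Kept 6-8 days at 22° C, 70% humidity; lesion density per leaf rated against untreated or diluent-sprayed controls.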

[9] = test system: Erysiphe graminis f.sp. hordei; test: Activity against barley powdery mildew, direct therapeutic (EGT); format: in vivo; details: direct therapeutic foliar spray, 600 ppm, up to 7 days
In short: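 Barley seedlings (cv. Golden Promise, single-leaf stage) were dusted with mildew conidia one day before a therapeutic foliar spray of 600 ppm compound. Plants were kept at 18 °C and 40% humidity for up to 7 days, and sporulating leaf area was rated against untreated or diluent-sprayed controls.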

[10] = test system: Erysiphe graminis f.sp. hordei; test: Direct protectant activity against barley powdery mildew (EGP); format: in vivo; details: direct protectant foliar spray, 8 days
In short: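 Barley seedlings (cv Golden Promise, single-leaf stage) were foliar-sprayed, held 24 h at 18 °C/40% RH, then dusted with mildew conidia. After 8 days at 18 °C/40% RH, sporulating leaf area was scored as a rating against untreated or diluent-sprayed controls.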

Phytophthora infestans = format: in vivo; details: tomato, direct protectant foliar spray
[11] = test system: Pseudocercosporella herpotrichoides; test: Activity against wheat eyespot in-vitro (PHI); format: cell-based; details: 10 ppm, 10 days, 20° C., mycelial growth
In short: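 P. herpotrichoides mycelial fragments (5×10^4/ml) grown in half-strength PDB with compound at 10 ppm final, added from acetone. Incubated 10 days at 20 °C; mycelial growth rated against untreated or diluent controls.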

Rhizoctonia solani = test: Activity against Rhizoctonia in-vitro (RSI); format: cell-based; details: 10 ppm, 10 days, 20° C., mycelial growth
In short: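 R. solani mycelial fragments (5×10^4/ml) in half-strength Potato Dextrose Broth with compound added from acetone to 10 ppm final. Mycelial growth assessed after 10 days at 20° C, rated against untreated or diluent control.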

Venturia inaequalis = test: Activity against apple scab in-vitro (VII); format: cell-based; details: 10 ppm, 10 days, 20° C., mycelial growth
In short: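 Compound in acetone was tested at 10 ppm final in half-strength Potato Dextrose Broth inoculated with V. inaequalis mycelial fragments and spores at 5×10^4 propagules/ml. After 10 days at 20° C, mycelial growth was rated against untreated or diluent controls.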

Pyricularia oryzae [12] = format: in vivo; details: rice seedlings, direct therapeutic foliar spray, 600 ppm, 4-5 days

SMILES | disease control rating AS (Apple Scab) (Venturis inaequalis) | disease control rating GDM (Plasmopara viticola [1]) | disease control rating PB (Botrytis cinerea [2]) | disease control rating RB (Pyricularia oryzae [3]) | disease control rating SBC (Cercospora beticola) | disease control rating TEB (Alternaria solani [4]) | disease control rating WPM [5] | disease control rating WSN (Septoria nodorum) | disease control rating PVA (Plasmopara viticola [6]) | disease control rating AS (Alternaria solani [7]) | disease control rating BCB (Botrytis cinerea [8]) | disease control rating LN (Leptosphaeria nodorum) | disease control rating EGT [9] | disease control rating EGP [10] | disease control rating PIP (Phytophthora infestans) | disease control rating PHI [11] | disease control rating RSI (Rhizoctonia solani) | disease control rating VII (Venturia inaequalis) | disease control rating PO (Pyricularia oryzae [12])
CN(CC1COC2(CCC(C(C)(C)C)CC2)C1)C1CCCCC1 (stereo not drawn) [Compound 187] | 4 (45-59) | 5 (60-74) | 7 (90-95) | 0 (0) | 5 (60-74) | 6 (75-89) | 9 (100) | 7 (90-95) |  |  |  |  |  |  |  |  |  |  | 
CCN(CC1COC2(CCC(C(C)(C)C)CC2)C1)C1CCCCC1 (stereo not drawn) [Compound 188] | 5 (60-74) | 0 (0) | 5 (60-74) | 0 (0) | 4 (45-59) | 0 (0) | 8 (96-99) | 6 (75-89) |  |  |  |  |  |  |  |  |  |  | 
CC(C)(C)C1CCC2(CC1)CC(CCN)CO2.Cl (stereo not drawn) [Compound 190, 8-t-butyl-3-aminoethyl-1-oxaspiro(4,5)decane hydrochloride] |  |  |  |  |  |  |  |  | 1 (about 50-80% disease control) | 0 (less than 50% disease control) | 0 (less than 50% disease control) | 0 (less than 50% disease control) | 0 (less than 50% disease control) | 1 (about 50-80% disease control) | 2 (greater than 80% disease control) | 0 (less than 50% disease control) | 0 (less than 50% disease control) | 0 (less than 50% disease control) | 0 (less than 50% disease control)
CN(C)CCC1COC2(CCC(C(C)(C)C)CC2)C1 (stereo not drawn) [Compound 191] |  |  |  |  |  |  |  |  | 0 (less than 50% disease control) | 0 (less than 50% disease control) | 0 (less than 50% disease control) | 0 (less than 50% disease control) | 0 (less than 50% disease control) | 2 (greater than 80% disease control) | 0 (less than 50% disease control) | 0 (less than 50% disease control) | 0 (less than 50% disease control) | 0 (less than 50% disease control) | 0 (less than 50% disease control)
CC1CCCC(NCCC2COC3(CCC(C(C)(C)C)CC3)C2)C1 (stereo not drawn) [Compound 192] | 7 (90-95) | 6 (75-89) | 8 (96-99) | 0 (0) | 7 (90-95) | 4 (45-59) | 7 (90-95) | 7 (90-95) |  |  |  |  |  |  |  |  |  |  | 
CCCC(CCC)NCCC1COC2(CCC(C(C)(C)C)CC2)C1 (stereo not drawn) [Compound 193] | 6 (75-89) | 8 (96-99) | 7 (90-95) | 0 (0) | 6 (75-89) | 2 (15-29) | 8 (96-99) | 3 (30-44) |  |  |  |  |  |  |  |  |  |  | 
CCCCCC(C)NCCC1COC2(CCC(C(C)(C)C)CC2)C1 (stereo not drawn) [Compound 194] | 6 (75-89) | 7 (90-95) | 4 (45-59) | 0 (0) | 8 (96-99) | 3 (30-44) | 7 (90-95) | 7 (90-95) |  |  |  |  |  |  |  |  |  |  | 
CC(C)(C)C1CCC2(CC1)CC(CCNC1CCCCCC1)CO2 (stereo not drawn) [Compound 195] | 6 (75-89) | 5 (60-74) | 5 (60-74) | 7 (90-95) | 7 (90-95) | 0 (0) | 7 (90-95) | 7 (90-95) |  |  |  |  |  |  |  |  |  |  | 
CCCCN(CCCC)CCC1COC2(CCC(C(C)(C)C)CC2)C1 (stereo not drawn) [Compound 196] | 5 (60-74) | 5 (60-74) | 5 (60-74) | 6 (75-89) | 8 (96-99) | 0 (0) | 9 (100) | 7 (90-95) |  |  |  |  |  |  |  |  |  |  | 
CCCCC(CC)NCCC1COC2(CCC(C(C)(C)C)CC2)C1 (stereo not drawn) [Compound 197] | 5 (60-74) | 7 (90-95) | 8 (96-99) | 0 (0) | 7 (90-95) | 0 (0) | 8 (96-99) | 7 (90-95) |  |  |  |  |  |  |  |  |  |  | 
CC(C)(C)C1CCC2(CC1)CC(CCNC1CCC3CCCCC3C1)CO2 (stereo not drawn) [Compound 198] | 6 (75-89) | 6 (75-89) | 7 (90-95) | 0 (0) | 8 (96-99) | 6 (75-89) | 8 (96-99) | 8 (96-99) |  |  |  |  |  |  |  |  |  |  | 
CN(CCC1COC2(CCC(C(C)(C)C)CC2)C1)C1CCCCC1 (stereo not drawn) [Compound 199] | 6 (75-89) | 5 (60-74) | 7 (90-95) | 0 (0) | 3 (30-44) | 4 (45-59) | 8 (96-99) | 7 (90-95) |  |  |  |  |  |  |  |  |  |  | 
CCN(CCC1COC2(CCC(C(C)(C)C)CC2)C1)C1CCCCC1 (stereo not drawn) [Compound 200] | 7 (90-95) | 5 (60-74) | 8 (96-99) | 0 (0) | 8 (96-99) | 0 (0) | 8 (96-99) | 8 (96-99) |  |  |  |  |  |  |  |  |  |  | 
CCCCCC(C)N(C)CCC1COC2(CCC(C(C)(C)C)CC2)C1 (stereo not drawn) [Compound 201] | 6 (75-89) | 7 (90-95) | 3 (30-44) | 0 (0) | 6 (75-89) | 0 (0) | 8 (96-99) | 5 (60-74) |  |  |  |  |  |  |  |  |  |  | 
CCCCCC(C)N(CC)CCC1COC2(CCC(C(C)(C)C)CC2)C1 (stereo not drawn) [Compound 202] | 6 (75-89) | 5 (60-74) | 7 (90-95) | 0 (0) | 7 (90-95) | 0 (0) | 8 (96-99) | 5 (60-74) |  |  |  |  |  |  |  |  |  |  | 
